Literature values, collected in patent US20050065094A1, “Use of telmisartan for the prevention and treatment of vascular headache” (Boehringer Ingelheim International GmbH, priority 2003, published 2005).

Key:
[1] = test system: patients suffering from migraine; details: placebo-controlled crossover
[2] = test system: patients having mild/moderate hypertension; details: placebo-controlled

For `CCOc1nc2cccc(C(=O)O)c2n1Cc1ccc(-c2ccccc2-c2nnn[nH]2)cc1` [candesartan], the tolerability profile [1] is listed as “good tolerability profile”.

For `CCCCC1=NC2(CCCC2)C(=O)N1Cc1ccc(-c2ccccc2-c2nnn[nH]2)cc1` [irbesartan], the incidence of headache [2] is listed as “significant reduction in the incidence of headache”.
